Experimental findings from US7947720B2, “3,4-di-substituted cyclobutene-1,2-diones as CXC-chemokine receptor ligands” (Schering Corporation, priority 2001, dated 2011) are described below.

Each structure is given as a SMILES string.

The assay concerns the target T1, hCXCR2-CHO overexpressing membranes (Homo sapiens, UniProt P25025).
T1 construct: purchased Biosignal; host or cells: CHO cells (membranes)
T1 sequence (P25025 1-360): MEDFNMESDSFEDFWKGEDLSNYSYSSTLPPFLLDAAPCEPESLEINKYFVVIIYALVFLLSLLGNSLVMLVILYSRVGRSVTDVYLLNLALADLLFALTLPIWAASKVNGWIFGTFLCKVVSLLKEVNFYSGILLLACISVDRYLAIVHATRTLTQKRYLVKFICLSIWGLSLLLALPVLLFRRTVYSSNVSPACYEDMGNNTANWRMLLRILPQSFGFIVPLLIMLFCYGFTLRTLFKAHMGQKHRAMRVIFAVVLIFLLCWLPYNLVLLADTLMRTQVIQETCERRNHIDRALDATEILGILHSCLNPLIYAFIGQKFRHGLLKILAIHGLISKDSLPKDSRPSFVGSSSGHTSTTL
Description: CXCR2 SPA Assay. The following applies: [125I]-IL-8 0.1 nM. In kind it is binding.
Description: For each well of a 96 well plate, a reaction mixture of 4 μg hCXCR2-CHO overexpressing membranes (Biosignal) and 200 μg/well WGA-SPA beads (Amersham) in 100 μl was prepared in CXCR2 assay buffer (25 mM HEPES, pH 7.4, 2 mM CaCl2, 1 mM MgCl2). A 0.4 nM stock of ligand, [125I]-IL-8 (NEN), was prepared in the CXCR2 assay buffer. 20× stock solutions of test compounds were prepared in DMSO (Sigma). A 6× stock solution of GRO-α (R&D) was prepared in CXCR2 assay buffer. The above solutions were added to a 96-well assay plate (PerkinElmer or Corning) as follows: 10 μl test compound or DMSO, 40 ul CXCR2 assay buffer or GRO-α stock, 100 μl of reaction mixture, 50 μl of ligand stock (Final [Ligand]=0.1 nM). When 40× stock solutions of test compounds in DMSO were prepared, then the above protocol was used except instead 5 μl test compound or DMSO and 45 μl CXCR2 assay buffer were used. The assay plates were shaken for 5 minutes on a plate shaker, then incubated for 2-8 hours before cpm/well were determined in Microbeta Trilux counter (PerkinElmer). % Inhibition of total binding minus non-specific binding (250 nM Gro-α or 50 μM antagonist) was determined and IC50 values calculated.

A word on the Ki: it is a measure of affinity in units of concentration, obtained from inhibition or displacement. A low value points to a stronger hold on the target. The compound `CC[C@@H](Nc1c(Nc2cccc(C(=O)N(C)C)c2O)c(=O)c1=O)c1cc(C(C)C)co1` [Example 360.106] had a Ki of 0.8 nM.
